From a melting point compilation (Tetko et al.; mined from patent text by program, amines drawn as free bases though some values may be those of a salt)

Row | melting point [°C] | Structure (SMILES)
1 | 198 | Cc1ccc(C(=O)c2cc(-c3ccccc3)c(N3CCOCC3)s2)cc1
2 | 132 to 134 | CC1(C)OCC(C(N)=O)CO1
3 | 146 to 147 | Cn1nc(-c2c(Cl)cccc2Cl)nc1-c1sc(Cl)c(Cl)c1Cl
4 | 195 to 197 | Cc1ccccc1NC(=O)Nc1ccc(CC(=O)NC2(c3cc(CCC(=O)O)on3)CCCC2)cc1
5 | 181 to 183 | CN(Cc1cc2c(=O)c(C(=O)NCc3ccc(Cl)cc3)cn(C)c2s1)C[C@@H](O)c1ccc([N+](=O)[O-])cc1
6 | 114 to 117 | O=C(O)C(Cc1ccccc1)Nc1ncnc(-c2ccc(OCc3ccccc3)cc2)c1CO (centres undefined)
7 | 265 | CC=CCNc1cc(C(=O)O)cc(S(=O)(=O)Nc2ccc(NC(C)=O)cc2)c1Nc1ccc(NC(C)=O)cc1
8 | 100 to 102 | COc1cc(NCCCCCCN2CCN(CCCO)CC2)c2nccc(C)c2c1
9 | 69.8 to 71.7 | CCOP(=O)(OCC)c1c(C)c2c(c(C)c1-c1c(OCc3ccccc3)ccc3ccccc13)CN(S(=O)(=O)c1ccc(C)cc1)C2
10 | 123 to 125 | O=C(NCc1ccccn1)c1ccc2cnccc2n1
11 | 180 to 181 | CCCc1nc2c(N)nc(C)c(C)c2n1CC1(O)CCC1
12 | 121 to 123 | COc1ccc(C(=O)N2CCC(N3CCc4ccccc43)c3ccccc32)cc1OC (centres undefined)
13 | 60 to 61 | O=C1c2ccccc2C(=O)N1CCc1ccc(OC(F)(F)F)c(OC(F)(F)F)c1
14 | 59 to 61 | CCCc1c(OCCCCCOc2ccc3nc(CCC(=O)OCC)ccc3c2CCC(=O)OCC)ccc2c1OCCC2=O
15 | 124 to 125 | COC(=O)c1nn(C2CCCCO2)cc1NC(=O)c1ccccc1 (centres undefined)
16 | 127 to 128 | Cn1c(C(F)(F)F)cc(=O)n(-c2c(F)cc(Cl)c3ccoc23)c1=O
17 | > 300 | Cc1cc2n(C)c(=O)c3cnccc3n2n1
18 | 138 to 140 | CCCCNS(=O)(=O)CC(O)(CCCC)C1OC(C)(C)N(C(=O)OC(C)(C)C)C1CC1CCCCC1 (centres undefined)
19 | 92 to 93.9 | O=CN(O)CCCC(O)CS(=O)(=O)c1ccccc1Oc1ccc(OC(F)(F)F)cc1 (centres undefined)
20 | 169 to 174 | O=c1c2c(Cl)cc(Cl)cc2n(Cc2ccccc2)c(=O)n1-c1ccccc1
21 | 90 to 91 | c1cnc(N2CCN(Cc3ccc4c(c3)SCO4)CC2)nc1
22 | 78.2 to 79 | CCCCCCCCCCCCCCCCOCC(O)CN(CC(O)COCC(O)CO)C(=O)CCCCCCCCCCCCCCC (centres undefined)
23 | 101 to 103 | CN(C)CC(C)(C)Cn1ccc(-c2ccc(F)cc2)c1-c1ccncc1

Row | melting point [°C] | Structure (SMILES)
24 | 158 to 160 | Cc1ccc(-c2c(NS(=O)(=O)c3ccc(C(C)(C)C)cc3)ncnc2OCCOc2ncc(CCc3ccccc3)cn2)cc1
25 | 239 to 240 | Fc1ccc(-c2n[nH]cc2-c2ccnc(Nc3ccccc3F)n2)cc1
26 | 61 to 62 | O=C1Cc2ccc(Cl)cc2C(c2ccccc2)C1 (centres undefined)
27 | 64 | Cn1c(C(F)(F)F)n[nH]c1=O
28 | 54 | C=CCc1ccc2c(c1)CCC2O (centres undefined)
29 | 59 to 63 | CCCC(=O)C(=CNc1cccc(COC(=O)c2ccccc2)c1)C(=O)OCC
30 | 81 to 82 | CCOC(=O)CC[C@H](NC(=O)c1csc(CCCc2cc3c(=O)[nH]c(N)nc3[nH]2)c1)C(=O)OCC
31 | 171 to 172 | CCc1cccc(CC)c1-n1cncc1C(N)=O
32 | 138 to 139 | COc1ccc2c(c1)C(=O)c1c-2c(N2CCN(CC3CO3)CC2)nc2ccccc12 (centres undefined)
33 | 47 to 49 | CN(CCCNc1ncc(Cc2ccccc2Cl)c(=O)[nH]1)c1ccccn1
34 | 192 to 194 | CC(=O)Nc1ccc(F)cc1OCCOc1ccc([N+](=O)[O-])cc1F
35 | 167 to 168 | COc1cc(C)nc2c(OC)cc(Br)cc12
36 | 88 to 90 | CCSc1nc2c(C)ccnc2n1Cc1ccc(-n2cc(Cl)cc2-c2nnn[nH]2)cc1
37 | 109 to 111 | CC(CCOS(C)(=O)=S)(C(=O)O)C(=O)O (centres undefined)
38 | 182 to 183 | Cc1ccc(C(=O)CNC(=O)c2ccc(C(F)(F)F)cc2)s1
39 | 148 to 152 | Cc1nc(C(F)(F)F)c(C(=O)Nc2ccccc2-c2cc(F)c(F)c(F)c2)s1
40 | 110 to 111 | CCC(n1cncn1)C(O)(Cn1cncn1)c1c(F)cccc1F (centres undefined)
41 | 244 to 247 | CCCCOc1ccccc1-c1ncc(-c2nnn[nH]2)c(=O)[nH]1
42 | 248 to 249 | CCC(=S)C1=C(C)NC2=C(C(=O)c3ccccc32)C1c1ccccc1 (centres undefined)
43 | 128 to 130 | CCN(CC)c1c(Cl)cc(-n2c(C(F)(F)F)nn(C)c2=S)cc1Cl
44 | 125 to 128 | CCCCc1ccc(C(=O)CCCn2ccnc2)cc1
45 | 115 to 116 | Cc1c(N)cc(C(C)(C)C)c2c1CC(C)(C)O2
46 | 143 | NS(=O)(=O)c1ccc(-c2ccc(F)cc2F)cc1

Row | melting point [°C] | Structure (SMILES)
47 | 121 to 122 | COCCN(C)Cc1ccc(NC(=O)C2=Cc3cc(-c4ccc(C)cc4)ccc3OCC2)cc1
48 | 164 to 166 | CCN(CC)CCc1nc(-c2ccc(OC)c(OC)c2)c2cc(OC)c(OC)cc2n1
49 | 75 to 79 | CSC(=S)NCCCN1CCN(c2ccccc2)CC1
50 | 168 | CC(=O)OC1CSC(Oc2ccc3oc(C)nc3c2)C(OC(C)=O)C1OC(C)=O (centres undefined)
51 | 106 | CCOC(=O)c1cc(O)cc(C(=O)OCC)c1
52 | 127 to 128 | Cc1cc(C(O)(c2ccc(OC(F)(F)F)cc2)C(F)(F)F)ccc1N (centres undefined)
53 | 64 to 68 | CC(COc1ccc(CC2SC(=O)NC2=O)cc1)NCC(O)COc1ccccc1 (centres undefined)
54 | 148 to 150 | CCOc1cccc(NC(=O)Nc2ccc3c(c2)CCN(C(=O)Nc2ccc(OCCO)cc2Cl)C3)c1
55 | 134 | CCN(CC)c1ccc(C=C2Cc3ccccc3C2=O)c(C)c1
56 | 89 to 90 | COc1ccc(C2=NN(CC(=O)c3ccc4ccccc4c3)C(=O)[C@H]3CCCC[C@@H]23)cc1OC (relative stereo)
57 | 72 to 74 | COC(=O)c1ccc(C(=O)N2CCCc3ccccc32)cc1
58 | > 260 | NC(=O)Cc1ccc2c(c1)Cc1c-2[nH]c(=O)c2nccn12
59 | 127 to 129 | CON1CCC2(CC1)C(=O)C(c1c(C)cc(C)cc1C)([N+](=O)[O-])C(=O)N2C (centres undefined)
60 | 67 to 70 | CC(=O)SCCC1(C)C(=O)N2CCCC(C(=O)OC(C)(C)C)N2C1=O (centres undefined)
61 | 132 to 136 | C[C@]1(CN2CCC(OCc3ccc(Cl)c(Cl)c3)CC2)Cn2cc([N+](=O)[O-])nc2O1
62 | 169 | CC(=O)c1ccc(C(=O)NCC(=O)NCC(F)(F)F)c2ccccc12
63 | 152 | CCCCOc1cc(C=C[N+](=O)[O-])c([N+](=O)[O-])cc1OCc1ccccc1
64 | 145 to 147 | O=C(Nc1ccccc1Br)OCc1cn(-c2cc3cc(C(=O)O)c(=O)[nH]c3cc2C(F)(F)F)cn1
65 | 175 to 176 | COC(=O)c1ccc(-c2nc(-c3ccccc3)co2)cc1
66 | 165 to 166 | O=C(NC(Cc1ccc(C(F)(F)F)cc1)C(O)c1ccc(F)cc1)c1cccc(-c2ccccc2)c1 (centres undefined)
67 | 166 to 167 | O=C(c1ccccn1)c1cnn2c(-c3cccc(C(F)(F)F)c3)ccnc12
68 | 184 to 185 | COC1OCC[C@@H]1NC(=O)[C@H](CC(C)C)NC(=O)Nc1cccc2ccccc12 (some centres undefined)
69 | 197 to 199 | O=C1NCCc2ccc(OCCCCN3CCN(c4cccc(Cl)c4Cl)CC3)nc2N1

Row | melting point [°C] | Structure (SMILES)
70 | 135 to 140 | O=C1C(=O)c2ccc(Br)cc2C2=C1SCC1(CCN(C(=O)c3cccc(Cl)c3)CC1)O2
71 | 81 to 85 | C#CCN(C(=O)c1ccccc1C(F)(F)F)S(=O)(=O)c1cccc(C)c1
72 | 90 to 95.5 | CS(=O)(=O)Nc1cccc(OCCCN2CCC(OC(c3ccccc3)c3ccccc3)CC2)c1
73 | 125 to 127 | COc1ccc(NS(=O)(=O)c2cccc3c(N(C)C)cccc23)nn1
74 | 158 to 160 | CCS(=O)(=O)c1c(CS(=O)(=O)C2=NOC(C)(C)C2)c(C(F)(F)F)nn1-c1ccccc1
75 | 107 to 109 | CCCCOc1c(CNC(=O)OC(C)(C)C)n(CC(C)C)c(=O)c2ccc(-c3nc(C)c(C(=O)O)s3)cc12
76 | 224 to 225 | COc1ccc(N2CCC(c3cnc(N)nc3N)CC2)cc1
77 | 82 to 94 | CCOCCn1c(N2CCCN(CCC3(c4ccccc4)CCN(C(=O)c4cc(OC)c(OC)c(OC)c4)C3)CC2)nc2ccccc21 (centres undefined)
78 | 210 | CNc1ccc(CC(=O)C(=O)O)cc1
79 | 79 to 81 | CCOC(=O)CN1C(=O)COc2cc(F)c([N+](=O)[O-])cc21
80 | 66 to 66.5 | OC1(c2ccccn2)CCC2CCCC21 (centres undefined)
81 | 77 to 82 | CCCCCCNC(=O)OC1CCN(C(=O)Oc2ccc(Oc3ccccc3)cc2)CC1
82 | 184 to 186 | COc1c(Cl)ccc(-c2nc(Cl)c3c(ncn3C)n2)c1F
83 | 131 | COc1ccc(NC(=O)CN2CC(C)N(C(c3ccc(F)cc3)c3ccc(F)cc3)CC2C)cc1 (centres undefined)
84 | 126 to 128 | Cc1nc(-c2ccc(C#N)cc2)sc1C(=O)N[C@H](C)[C@](O)(Cn1ccnc1)c1ccc(F)cc1F
85 | 137 to 140 | COC(=O)CCC(=O)c1ccc(-c2ccc(SC)cc2)cc1
86 | 127 to 135 | Cc1noc(NS(=O)(=O)c2ccccc2-c2ccc(-c3ncco3)cc2CN2CCc3ccccc3C2=O)c1C
87 | 153 to 155 | NC(=O)N(O)CCNC(=O)COc1cccc(Oc2ccccc2)c1
88 | 54 to 58 | Cc1oc(C)c(C(=O)OC2CC(C)(C)NC(C)(C)C2)c1C
89 | 144 | CCOC(=O)CC1C(=O)N(CCc2c[nH]c3ccccc23)CCN1C(=O)c1ccccc1 (centres undefined)
90 | 120 to 126 | O=C(N[C@H]1CCC(=O)N2CCC[C@@H](C(=O)O)N2C1=O)OCC1c2ccccc2-c2ccccc21

Row | Structure (SMILES) | melting point [°C]
91 | CC(C)(C)C(=O)c1c(CC(C)(C)C(=O)O)n(Cc2ccc(Cl)cc2)c2ccc(OCc3ccc4occc4n3)cc12 | 160
92 | CCOC(=O)C12CC1CN(S(=O)(=O)c1ccc(C)cc1)C2c1ccccc1 (centres undefined) | 123 to 124
93 | CC(Br)C(=O)c1ccc(O)cc1 (centres undefined) | 95 to 97
94 | COc1cc(NC(=O)Nc2ccccc2)cc(Cl)n1 | 161 to 162
